These results are taken from paper PMC3653620 (Investigative radiology, 2012).

Series [1] has as its system tumor periphery (breast cancer xenograft, BT-20). In words: Contrast agent washout from tumor periphery, T1-weighted MRI at 9.4T. The class given is in vivo, nude mice; human adenocarcinoma BT-20 cell line. The following applies: for retention in the tumor periphery / washout, in words: Gd-DTPA 200, EP-2104R or CLP 20 μmol/kg i.v.; for t1/2 in the tumor periphery: CNR vs time.

For series [2] the following is noted: cited from earlier work.
Series [3] concerns tumor core (breast cancer xenograft, BT-20). The series can be described thus: Contrast agent washout from tumor core, T1-weighted MRI at 9.4T. The class given is in vivo, nude mice; human adenocarcinoma BT-20 cell line.
Series [4] has as its system thrombi in the heart chambers, arteries or veins. As to conditions: animal models and clinical trials; ref [32]-[43]; cited from earlier work.
The conditions of series [5]: cited from earlier work; for relaxivity at 9.4T: per molecule.
Series [6] has as its system blood plasma proteins. The following applies: cited from earlier work.

Entries after “also recorded” stand apart in the source; their conditions may differ. Where two headings read alike, the source gives them in different places. Where a SMILES comes first, the peptide text is derived from it. Bridges are numbered along the chain shown (N, C = ends). [ ]: non-standard residue; d: D form. The star is where a group is joined. X1 = O=C(O)CN1CCN(CC(=O)O)CCN(C(CCC(=O)NCC[C@H](NC(=O)CCC(C(=O)O)N2CCN(CC(=O)O)CCN(CC(=O)O)CCN(CC(=O)O)CC2)C(=O)NCc2ccc(CN*)cc2)C(=O)O)CCN(CC(=O)O)CC1; DOTAGA = O=C(O)CN1CCN(CC(=O)O)CCN(C(CCC(=O)*)C(=O)O)CCN(CC(=O)O)CC1; Tyr(3-Cl) = N[C@@H](Cc1ccc(O)c(Cl)c1)C(=O)O; Hyp = O=C(O)[C@@H]1C[C@@H](O)CN1; Dab = NCC[C@H](N)C(=O)O Where only a bound is given, the exact number is not on record here.

For the compound `CC[C@H](C)[C@H](NC(=O)[C@H](Cc1ccc(O)cc1)NC(=O)[C@@H]1CSSC[C@H](NC(=O)[C@@H](CCC(=O)O)NC(=O)[C@H](Cc2ccc(O)cc2)NC(=O)[C@H](CCNC(=O)CCC(C(=O)O)N2CCN(CC(=O)O)CCN(CC(=O)O)CCN(CC(=O)O)CC2)NC(=O)CCC(C(=O)O)N2CCN(CC(=O)O)CCN(CC(=O)O)CCN(CC(=O)O)CC2)C(=O)N2C[C@H](O)C[C@H]2C(=O)N[C@@H](Cc2ccc(O)c(Cl)c2)C(=O)NCC(=O)N[C@@H](CC(C)C)C(=O)N1)C(=O)N[C@@H](CCC(N)=O)C(=O)NCc1ccc(CNC(=O)[C@H](CCNC(=O)CCC(C(=O)O)N2CCN(CC(=O)O)CCN(CC(=O)O)CCN(CC(=O)O)CC2)NC(=O)CCC(C(=O)O)N2CCN(CC(=O)O)CCN(CC(=O)O)CCN(CC(=O)O)CC2)cc1` (stereo partly drawn) [EP-2104R] ({DOTAGA}-[Dab](DOTAGA)Y[dE]C[Hyp][Tyr(3-Cl)]GLCYIQ-X1; disulfide 4-9; N-terminus and C-terminus assumed), the “retention in the tumor periphery / washout, in words” value in series [1] (9.4T) was “stays in the tumor periphery much longer than Gd-DTPA or CLP; also recorded: significantly longer retained in the tumor periphery; also recorded: retained significantly longer in the tumor periphery than either Gd-DTPA or CLP”. Besides, in series [1] (after EP-2104R injection, 20 μmol/kg i.v., FLASH images, 9.4T), the “duration of persistent enhancement of the tumor periphery” value is at least 90 min. Besides, in series [1] (in vivo), the “variability of washout from the tumor periphery” value is recorded as “varied several fold across this ROI”; the “washout from the tumor periphery, % slower than Gd-DTPA” value was 190±75%; the “washout from the tumor periphery, fold slower than CLP” value is 5 fold. For the same compound, in series [1] (in vivo, iv), the “Half-life in the tumor periphery (mean ± SEM)” value came to 103 ± 18 min and the “t1/2 in the tumor periphery, Mean (St Dev)” value is 103 (53) min. Also, in series [2] (in vivo), the excretion entry is listed as “exclusive renal excretion”. The enhancement of tumor entry in series [3] (EP-2104R 20 μmol/kg i.v., transient, tumor core and periphery, 9.4T) was “transiently enhanced both the tumor core and periphery”. For the same compound, in series [3] (in vivo), the “washout from the tumor core, % slower than Gd-DTPA” value was 20%. Further, the “t1/2, washout from the tumor core” value in series [3] (mouse, in vivo, iv) stood at 45 ± 9 min. In addition, the identification of thrombi entry in series [4] is listed as “efficacious in identifying thrombi in the heart chambers, arteries or veins”. Besides, the “relaxivity at 9.4T, per Gd” value in series [5] (9.4T, per Gd, ref [48],[49]) was 6.4 mM⁻¹ s⁻¹. The “relaxivity at 9.4T” value in series [5] (9.4T, ref [48],[49]) is 25.6 mM⁻¹ s⁻¹. Further, in series [5] (fibrin-bound, 9.4T vs clinical field strengths, ref [22],[48]), the “relaxivity of fibrin-bound probe at 9.4T vs clinical field strengths” value was “much lower at this field compared to clinical field strengths”. Besides, the “affinity for blood plasma proteins” value in series [6] is “only very low affinity for blood plasma proteins”.

Regarding `CNC[C@H](O)[C@@H](O)[C@H](O)[C@H](O)CO.CNC[C@H](O)[C@@H](O)[C@H](O)[C@H](O)CO.O=C([O-])CN(CCN(CC(=O)[O-])CC(=O)O)CCN(CC(=O)[O-])CC(=O)O.[Gd+3]` [Gd-DTPA, Gadopentetate dimeglumine], the “retention in the tumor periphery / washout, in words” value in series [1] (9.4T) was “not retained in the tumor periphery; also recorded: significantly faster washout than EP-2104R”. For the same compound, the “half-life in tumor periphery compared with EP-2104R” value in series [1] (all animals, p<0.05 for both) was “significantly shorter”. For the same compound, the “variability of washout from the tumor periphery” value in series [1] (among all the mice, or across the tumor periphery ROI in some mice) is listed as “very similar among all the mice”. The “t1/2 in the tumor periphery” value in series [1] (animal 3, Gd-DTPA 200 μmol/kg then EP-2104R 20 μmol/kg i.v., 9.4T) is on record as 27 min; in series [1] (animal 4, Gd-DTPA 200 μmol/kg then EP-2104R 20 μmol/kg i.v., 9.4T) it was 38 min; in series [1] (animal 5, Gd-DTPA 200 μmol/kg then EP-2104R 20 μmol/kg i.v., 9.4T), 26 min; in series [1] (animal 6, Gd-DTPA 200 μmol/kg then EP-2104R 20 μmol/kg i.v., 9.4T), 23 min; in series [1] (animal 7, Gd-DTPA 200 μmol/kg then EP-2104R 20 μmol/kg i.v., 9.4T), 38 min; in series [1] (animal 8, Gd-DTPA 200 μmol/kg then EP-2104R 20 μmol/kg i.v., 9.4T), 41 min. The “t1/2 in the tumor periphery” value turned out to be 29 min in series [1] (animal 9, Gd-DTPA 200 μmol/kg then CLP 20 μmol/kg i.v., 9.4T); 20 min in series [1] (animal 10, Gd-DTPA 200 μmol/kg then CLP 20 μmol/kg i.v., 9.4T); 27 min in series [1] (animal 11, Gd-DTPA 200 μmol/kg then CLP 20 μmol/kg i.v., 9.4T). Moreover, the excretion result in series [2] (ref [22],[33]) is “exclusive renal excretion”. Moreover, the “t1/2, washout from the tumor core” value was determined as 28 ± 5 min in series [3] (3 mice, Gd-DTPA 200 μmol/kg followed by CLP 20 μmol/kg i.v., ±SEM, p=0.35) and 38 ± 9 min in series [3] (6 mice, Gd-DTPA 200 μmol/kg followed by EP-2104R 20 μmol/kg i.v., ±SEM, p=0.17). Moreover, the “relaxivity at 9.4T” value in series [5] (9.4T, ref [48],[49]) was 3.7 mM⁻¹ s⁻¹. For the same compound, the “affinity for blood plasma proteins” value in series [6] (ref [22],[33]) is listed as “only very low affinity for blood plasma proteins”.
